Measurements as given in patent US20050053591A1, “Compositions and uses of motor protein-binding moieties” (Insert Therapeutics, Inc., priority 2002, published 2005).

Columns and labels:
PC3 cells = assay: Dynein-mediated transport to the nuclear surface in cultured cells (fluorescence microscopy, FIG. 1); assay type: cell-based; details: rhodamine-labeled GFP plasmid conjugated to peptide, formulated with CD-IPEI at 5+/-, 1 μg plasmid, 5 hours exposure
Procedure: PC3 cells were plated at 100,000 cells/mL in 6-well plates containing a clean glass coverslip at the bottom of each well one day before transfection. For transfection, 1 μg of plasmid was mixed with a linear, cyclodextrin polycation (CD-IPEI) at 5+/− and mixed with cells in 1 mL of Opti-MEM. Transfection solution was removed 5 hours after exposure and replaced with complete media. Cells were washed with PBS, fixed with formalin (0.5 mL for 10 minutes), and washed 3 times with PBS. The coverslips were then removed from the wells and mounted on glass slides with Prolong Antifade (Molecular Probes, Eugene, Oreg.).

[1] = biological target: FKBPs with a single amino acid substitution, Phe36Val (FV) (Homo sapiens, UniProt P62942, F37V); details: FKBP Phe36Val (FV); cited from earlier work
wild-type FKBP = wild-type FKBP (Homo sapiens, UniProt P62942); details: wild-type FKBP versus FV; cited from earlier work
DLC8 = DLC8 (Homo sapiens, UniProt P63167); details: nine-residue peptide from the Bim protein (Lo et al.); cited from earlier work
Chain of DLC8 (P63167 whole entry, species assumed): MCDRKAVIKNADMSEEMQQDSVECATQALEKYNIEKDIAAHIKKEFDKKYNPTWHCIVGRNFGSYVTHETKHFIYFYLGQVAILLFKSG

Chain of wild-type FKBP (P62942 whole entry): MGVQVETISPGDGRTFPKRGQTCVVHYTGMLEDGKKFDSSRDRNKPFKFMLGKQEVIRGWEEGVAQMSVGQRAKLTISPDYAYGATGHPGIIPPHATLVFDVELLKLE
Chain of FKBPs with a single amino acid substitution, Phe36Val (FV) (P62942 whole entry F37V): as the sequence (P62942 whole entry) above, with F37V counted along it

Row | Compound | transport of plasmid DNA toward the nucleus (PC3 cells) | binding affinity [1] | lower affinity to the wild-type protein relative to Phe36Val FKBP (wild-type FKBP) [fold] | DLC8 binding (DLC8)
1 | CSYSKETQPL [dynein-binding peptide] | facilitates transport toward the nucleus |  |  | 
2 | CC[C@H](C(=O)N1CCCC[C@H]1C(=O)O[C@H](CCc1ccc(OC)c(OC)c1)c1cccc(OCC(=O)NCCNC(=O)COc2cccc([C@@H](CCc3ccc(OC)c(OC)c3)OC(=O)[C@@H]3CCCCN3C(=O)[C@@H](CC)c3cc(OC)c(OC)c(OC)c3)c2)c1)c1cc(OC)c(OC)c(OC)c1 [AP1903] |  | subnanomolar | 1000 | 
3 | MSCDKSTQT [nine-peptide from the Bim protein] |  |  |  | can bind DLC8
4 | CC[C@H](C(=O)N1CCCC[C@H]1C(=O)O[C@H](CCc1ccc(OC)c(OC)c1)c1cccc(OCC(=O)NCC(CNC(=O)COc2cccc([C@@H](CCc3ccc(OC)c(OC)c3)OC(=O)[C@@H]3CCCCN3C(=O)[C@@H](CC)c3cc(OC)c(OC)c(OC)c3)c2)CN(C)C)c1)c1cc(OC)c(OC)c(OC)c1 [AP20187] |  | subnanomolar | 1000 | 
